From ChEMBL document CHEMBL2417463, “Synthesis and identification of new flavonoids targeting liver X receptor β involved pathway as potential facilitators of Aβ clearance with reduced lipid accumulation” (J Med Chem, 2013) come the findings set out here.

Calls of active or inactive are those of the source. No cut-off for these calls is given here.

The target in data set [1] is T1, Oxysterols receptor LXR-alpha (Homo sapiens) (UniProt Q13133).
T1 sequence (whole entry): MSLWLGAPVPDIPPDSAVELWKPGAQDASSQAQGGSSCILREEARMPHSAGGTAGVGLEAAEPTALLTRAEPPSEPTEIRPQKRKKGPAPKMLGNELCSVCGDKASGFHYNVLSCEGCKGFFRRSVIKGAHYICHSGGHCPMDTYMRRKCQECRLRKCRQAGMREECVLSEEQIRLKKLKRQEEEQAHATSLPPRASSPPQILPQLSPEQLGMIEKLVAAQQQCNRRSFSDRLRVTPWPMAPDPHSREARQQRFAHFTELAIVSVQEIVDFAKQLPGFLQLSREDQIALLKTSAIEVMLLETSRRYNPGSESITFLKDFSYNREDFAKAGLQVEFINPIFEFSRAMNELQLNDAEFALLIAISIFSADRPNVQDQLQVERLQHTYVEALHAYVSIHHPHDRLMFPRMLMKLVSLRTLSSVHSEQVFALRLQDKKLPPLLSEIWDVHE
The data set is described as follows: Agonist activity at human LXRalpha transfected in HEK293 cells at 1 uM after 24 hrs by luciferase reporter gene assay relative to vehicle-treated control. The class given is cell-based. A general note: A reporter such as luciferase makes a cellular process visible.

Data set [2] concerns Mus musculus. The data set is described as follows: Antialzheimer activity in double transgenic B6C3 mouse overexpressing APP swedish mutant and PSEN1dE9 assessed as reduction of amyloid beta plaque load in brain at 10 mg/kg, ip administered 3 times per week measured after 6 weeks by thioflavin S staining-based fluorescence microscopic analysis relative to vehicle-treated control. The class given is functional, organism-based. The arrangement: dose 10 mg/kg.

Data set [3] deals with T2, Oxysterols receptor LXR-beta (Mus musculus) (UniProt Q60644).
T2 sequence (whole entry): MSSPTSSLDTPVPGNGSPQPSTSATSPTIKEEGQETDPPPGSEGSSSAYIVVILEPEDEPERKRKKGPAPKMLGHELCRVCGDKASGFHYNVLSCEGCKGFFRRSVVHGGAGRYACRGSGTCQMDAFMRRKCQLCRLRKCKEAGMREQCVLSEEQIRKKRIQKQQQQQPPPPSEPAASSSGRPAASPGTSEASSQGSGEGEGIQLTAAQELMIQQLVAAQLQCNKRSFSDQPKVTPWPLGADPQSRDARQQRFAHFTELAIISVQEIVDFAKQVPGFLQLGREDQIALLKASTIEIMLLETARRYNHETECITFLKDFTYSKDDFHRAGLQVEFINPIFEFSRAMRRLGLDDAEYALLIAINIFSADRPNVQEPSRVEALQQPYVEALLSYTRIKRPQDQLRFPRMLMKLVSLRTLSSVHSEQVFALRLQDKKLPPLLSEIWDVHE
The data set is described as follows: Agonist activity at LXRbeta in mouse RAW264.7 cells assessed as upregulation of ABCA1 protein expression after 18 to 48 hrs by Western blot analysis. The format is cell-based. A general note: A western blot detects proteins with antibodies after separation by electrophoresis.

The subject of data set [4] is Mus musculus. The data set is described as follows: Antialzheimer activity in double transgenic B6C3 mouse overexpressing APP swedish mutant and PSEN1dE9 assessed as reduction of amyloid beta42 plaque load in hippocampus at 10 mg/kg, ip administered 3 times per week measured after 6 weeks by OC staining-based fluorescence microscopic analysis relative to vehicle-treated control. Also on record: scale not given: the % may be the effect or the level left. The format is functional. To be noted: route intraperitoneal.

Data set [5] has as its target T2, Oxysterols receptor LXR-beta (Mus musculus). The data set is described as follows: Agonist activity at LXRbeta in mouse BV2 cells assessed as degradation of intracellular soluble amyloid beta42 at 0.01 uM preincubated for 18 hrs followed by soluble amyloid beta42 addition measured after 24 hrs by ELISA relative to vehicle-treated control. The format is cell-based. Conditions: BV-2. For orientation: An ELISA detects its analyte on a solid surface through an enzyme-linked reagent.

Data set [6] shares this target. The experiment in a line: Agonist activity at LXRbeta in mouse BV2 cells assessed as upregulation of ABCA1 protein expression at 1 uM after 12 to 48 hrs by Western blot analysis. The format is cell-based. To be noted: BV-2.
For another data set, the system named is RAW264.7. The experiment in a line: Cytotoxicity against mouse RAW264.7 cells assessed as inhibition of cell viability at 50 uM after 48 hrs by SRB assay relative to vehicle-treated control. Conditions: raw264.7, 48 h. The class given is cell-based.
In data set [7] the target is T2, Oxysterols receptor LXR-beta (Mus musculus). The experiment in a line: Agonist activity at LXRbeta in mouse BV2 cells assessed as degradation of intracellular amyloid beta42 preincubated for 18 hrs followed by soluble amyloid beta42 addition measured after 24 hrs by ELISA. The format is cell-based. To be noted: BV-2.
Data set [8] relates to Mus musculus. The data set is described as follows: Antialzheimer activity in double transgenic B6C3 mouse overexpressing APP swedish mutant and PSEN1dE9 assessed as upregulation of apoE protein expression in brain at 10 mg/kg, ip administered 3 times per week measured after 6 weeks by Western blot analysis relative to vehicle-treated control. Conditions: route intraperitoneal. The class given is functional.

Data set [9] has as its target T2, Oxysterols receptor LXR-beta (Mus musculus). The data set is described as follows: Agonist activity at LXRbeta in mouse BV2 cells assessed as degradation of intracellular soluble amyloid beta42 at 0.1 uM preincubated for 18 hrs followed by soluble amyloid beta42 addition measured after 24 hrs by ELISA relative to vehicle-treated control. The class given is cell-based. Conditions: BV-2.

Data set [10] relates to Mus musculus. The data set is described as follows: Antialzheimer activity in double transgenic B6C3 mouse overexpressing APP swedish mutant and PSEN1dE9 assessed as reduction of amyloid beta42 plaque number in cortex at 10 mg/kg, ip administered 3 times per week measured after 6 weeks by OC staining-based fluorescence microscopic analysis relative to vehicle-treated control. The format is functional. The arrangement: scale not given: the % may be the effect or the level left. To be noted: route intraperitoneal.

In data set [11] the target is T3, Oxysterols receptor LXR-beta (Homo sapiens) (UniProt P55055).
T3 sequence (whole entry): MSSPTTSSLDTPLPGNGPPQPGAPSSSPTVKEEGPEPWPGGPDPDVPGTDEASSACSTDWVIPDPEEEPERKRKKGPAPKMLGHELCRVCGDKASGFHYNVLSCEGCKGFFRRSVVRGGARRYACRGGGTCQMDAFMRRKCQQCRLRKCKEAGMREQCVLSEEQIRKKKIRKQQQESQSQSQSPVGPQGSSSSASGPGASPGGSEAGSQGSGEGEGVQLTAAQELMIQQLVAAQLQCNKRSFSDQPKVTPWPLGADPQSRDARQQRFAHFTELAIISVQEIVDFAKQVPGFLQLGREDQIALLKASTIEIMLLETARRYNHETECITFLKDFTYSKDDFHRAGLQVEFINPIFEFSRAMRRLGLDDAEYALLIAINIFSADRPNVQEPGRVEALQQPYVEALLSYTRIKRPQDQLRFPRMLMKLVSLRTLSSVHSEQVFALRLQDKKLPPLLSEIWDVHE
The experiment in a line: Agonist activity at human LXRbeta transfected in HEK293 cells at 1 uM after 24 hrs by luciferase reporter gene assay relative to vehicle-treated control. The class given is cell-based.

Data set [12] addresses T3, Oxysterols receptor LXR-beta (Homo sapiens). The data set is described as follows: Agonist activity at human LXRbeta transfected in HEK293 cells at 0.1 uM after 24 hrs by luciferase reporter gene assay relative to vehicle-treated control. The class given is cell-based.

As to `Cc1ccc(/C=C/C(=O)c2ccc(N)cc2O)o1`, the fold change (FC) in data set [1] turned out to be 1.19; in the data set with Mus musculus [8], 1.6; in data set [11], 1.79; in data set [12], 1.07. Also, the outcome (in the data set with Mus musculus [2]; in [6]) was Active. Besides, the Activity result in data set [3] was “Dose-dependent effect”; in the data set on Mus musculus [4], 28%; in [5], 29%; in the data set with RAW264.7 it was “Non-toxic”; in data set [7], “Dose-dependent effect”; in data set [9] it was 52%. In addition, in the data set on Mus musculus [10], the Activity amounted to 30%.
